Assay: activity coefficient (dimensionless); of the first substance listed, at infinite dilution; xn = mol fraction of the nth substance listed
Conditions: 101 kPa, Liquid, Chromatography, x1 = 0

Cc1ccccc1C [1,2-dimethylbenzene] + CCCCC[n+]1ccccc1.O=S(=O)([N-]S(=O)(=O)C(F)(F)F)C(F)(F)F
Conditions	activity coefficient
303.1 K	1.57
312.8 K	1.61
323.4 K	1.63
333.4 K	1.65
343.3 K	1.66
353.5 K	1.69

Cc1ccccc1C [1,2-dimethylbenzene] + CCCC[n+]1ccccc1.O=S(=O)([N-]S(=O)(=O)C(F)(F)F)C(F)(F)F
Conditions	activity coefficient
302.8 K	2.22
312.5 K	2.25
323.3 K	2.26
333.3 K	2.28
343.2 K	2.28
353.2 K	2.3

Cc1ccccc1C [1,2-dimethylbenzene] + CC[n+]1ccccc1.O=S(=O)([N-]S(=O)(=O)C(F)(F)F)C(F)(F)F
Conditions	activity coefficient
303.1 K	2.66
313.2 K	2.67
323.3 K	2.68
333.1 K	2.7
343.1 K	2.7
353.1 K	2.71

Cc1cccc(C)c1 [1,3-dimethylbenzene] + CCCCC[n+]1ccccc1.O=S(=O)([N-]S(=O)(=O)C(F)(F)F)C(F)(F)F
Conditions	activity coefficient
303 K	1.76
312.8 K	1.8
323.5 K	1.81
333.4 K	1.84
343.3 K	1.87
353.3 K	1.91

Cc1cccc(C)c1 [1,3-dimethylbenzene] + CCCC[n+]1ccccc1.O=S(=O)([N-]S(=O)(=O)C(F)(F)F)C(F)(F)F
Conditions	activity coefficient
302.8 K	2.47
312.5 K	2.49
323.3 K	2.5
333.3 K	2.51
343.1 K	2.52
353.3 K	2.53

Cc1cccc(C)c1 [1,3-dimethylbenzene] + CC[n+]1ccccc1.O=S(=O)([N-]S(=O)(=O)C(F)(F)F)C(F)(F)F
Conditions	activity coefficient
302.8 K	3.07
313.2 K	3.09
323.2 K	3.1
333.1 K	3.11
343 K	3.12
353.1 K	3.13

Cc1ccc(C)cc1 [1,4-dimethylbenzene] + CCCCC[n+]1ccccc1.O=S(=O)([N-]S(=O)(=O)C(F)(F)F)C(F)(F)F
Conditions	activity coefficient
303.1 K	1.74
312.7 K	1.79
323.5 K	1.81
333.4 K	1.84
343.3 K	1.87
353.3 K	1.91

Cc1ccc(C)cc1 [1,4-dimethylbenzene] + CCCC[n+]1ccccc1.O=S(=O)([N-]S(=O)(=O)C(F)(F)F)C(F)(F)F
Conditions	activity coefficient
302.8 K	2.45
312.5 K	2.48
323.3 K	2.49
333.3 K	2.52
343.1 K	2.54
353.3 K	2.54

Cc1ccc(C)cc1 [1,4-dimethylbenzene] + CC[n+]1ccccc1.O=S(=O)([N-]S(=O)(=O)C(F)(F)F)C(F)(F)F
Conditions	activity coefficient
302.6 K	3.04
313.3 K	3.05
323.2 K	3.07
333.1 K	3.08
343 K	3.09
353.1 K	3.11

C=CCCCCCCCC [1-decene] + CCCCC[n+]1ccccc1.O=S(=O)([N-]S(=O)(=O)C(F)(F)F)C(F)(F)F
Conditions	activity coefficient
303.1 K	26.4
312.6 K	25.1
322.6 K	23.8
333.4 K	22.1
343.4 K	20.6
353.4 K	19.3

C=CCCCCCCCC [1-decene] + CCCC[n+]1ccccc1.O=S(=O)([N-]S(=O)(=O)C(F)(F)F)C(F)(F)F
Conditions	activity coefficient
302.5 K	46.7
313.2 K	40.1
322.8 K	39.6
332.8 K	34.6
342.9 K	31.2
353 K	28.1

C=CCCCCCCCC [1-decene] + CC[n+]1ccccc1.O=S(=O)([N-]S(=O)(=O)C(F)(F)F)C(F)(F)F
Conditions	activity coefficient
302.9 K	85.8
313.2 K	77.2
323.2 K	70
332.8 K	62.7
342.9 K	54.5
353 K	46.9

C#CCCCCC [1-heptyne] + CCCCC[n+]1ccccc1.O=S(=O)([N-]S(=O)(=O)C(F)(F)F)C(F)(F)F
Conditions	activity coefficient
302.8 K	4.17
313.6 K	4
323.4 K	3.87
333.3 K	3.74
343.3 K	3.58
353.3 K	3.42

C#CCCCCC [1-heptyne] + CCCC[n+]1ccccc1.O=S(=O)([N-]S(=O)(=O)C(F)(F)F)C(F)(F)F
Conditions	activity coefficient
302.8 K	5.63
313.3 K	5.49
323.2 K	5.29
333.1 K	5.03
343.1 K	4.79
353.1 K	4.58

C#CCCCCC [1-heptyne] + CC[n+]1ccccc1.O=S(=O)([N-]S(=O)(=O)C(F)(F)F)C(F)(F)F
Conditions	activity coefficient
302.5 K	8.41
313.2 K	7.96
323 K	7.5
333 K	7.06
342.9 K	6.53
353 K	5.92

C#CCCCC [1-hexyne] + CCCCC[n+]1ccccc1.O=S(=O)([N-]S(=O)(=O)C(F)(F)F)C(F)(F)F
Conditions	activity coefficient
302.8 K	2.92
313.6 K	2.82
323.4 K	2.66
333.3 K	2.53
343.3 K	2.42
353.3 K	2.29

C#CCCCC [1-hexyne] + CCCC[n+]1ccccc1.O=S(=O)([N-]S(=O)(=O)C(F)(F)F)C(F)(F)F
Conditions	activity coefficient
303.5 K	3.92
313.3 K	3.72
323.2 K	3.5
333.1 K	3.29
343.1 K	3.04
353.1 K	2.82

C#CCCCC [1-hexyne] + CC[n+]1ccccc1.O=S(=O)([N-]S(=O)(=O)C(F)(F)F)C(F)(F)F
Conditions	activity coefficient
302.5 K	5.26
313.2 K	4.95
323 K	4.63
333 K	4.18
342.9 K	3.88
353 K	3.47

C#CCCCCCC [1-octyne] + CCCCC[n+]1ccccc1.O=S(=O)([N-]S(=O)(=O)C(F)(F)F)C(F)(F)F
Conditions	activity coefficient
302.8 K	5.62
313.6 K	5.47
323.4 K	5.34
333.3 K	5.22
343.4 K	5.07
353.3 K	4.94

C#CCCCCCC [1-octyne] + CCCC[n+]1ccccc1.O=S(=O)([N-]S(=O)(=O)C(F)(F)F)C(F)(F)F
Conditions	activity coefficient
302.6 K	8.1
313.4 K	7.82
323.2 K	7.6
333.1 K	7.34
343.1 K	7.05
353.1 K	6.8

C#CCCCCCC [1-octyne] + CC[n+]1ccccc1.O=S(=O)([N-]S(=O)(=O)C(F)(F)F)C(F)(F)F
Conditions	activity coefficient
302.5 K	12.9
313.2 K	12.3
323 K	11.8
333 K	11.1
342.9 K	10.4
353 K	9.74

C#CCCC [1-pentyne] + CCCCC[n+]1ccccc1.O=S(=O)([N-]S(=O)(=O)C(F)(F)F)C(F)(F)F
Conditions	activity coefficient
302.8 K	2.01
313.5 K	1.88
323.4 K	1.75
333.3 K	1.62
343.2 K	1.5
353.4 K	1.39

C#CCCC [1-pentyne] + CCCC[n+]1ccccc1.O=S(=O)([N-]S(=O)(=O)C(F)(F)F)C(F)(F)F
Conditions	activity coefficient
302.2 K	2.67
313.4 K	2.4
323.2 K	2.23
333.1 K	2.04
343 K	1.88
353.1 K	1.68

C#CCCC [1-pentyne] + CC[n+]1ccccc1.O=S(=O)([N-]S(=O)(=O)C(F)(F)F)C(F)(F)F
Conditions	activity coefficient
302.5 K	3.2
313.2 K	3
323 K	2.73
333 K	2.52
342.9 K	2.23
353.1 K	2.03

Reference: the NIST ThermoML archive (doi:10.1016/j.jct.2010.06.009)
